The values below come from PMC9177545, “3-oxo-C12:2-HSL, quorum sensing molecule from human intestinal microbiota, inhibits pro-inflammatory pathways in immune cells via bitter taste receptors” (Scientific Reports, 2022).

One data set relates to RAW264.7 cells and PBMC. The experiment in a line: Cytotoxicity by lactate dehydrogenase release. The data set is classed as cell-based. The settings on record: doses of AHL used in all experiments. On the procedure:
Release of lactate dehydrogenase into the medium was measured to assess cellular toxicity. LDH concentration was measured using the Cytotoxicity Detection Kit (Roche, Boulogne-Billancourt, France) according to the manufacturer’s instructions. The media were centrifuged 5 min at 250g to remove any cells. 50 µL of reaction mixture was added to 50 µL of media supernatant in 96-well plates. After 10 min at room temperature, 25 µL of stop solution was added. Absorbance at 490 nm was determined with a microplate spectrometer (FLUOstar Omega; BMG Labtech). Results are expressed as absorbance arbitrary units.

The subject of a further data set is JAK2. The experiment in a line: JAK2 phosphorylation by Wes capillary electrophoresis in activated RAW264.7 macrophages. The data set is classed as cell-based, murine. To be noted: 50 µM, 2 h, LPS and IFNγ stimulated. On the procedure: (§1) In RAW264.7 cells, inflammation was triggered with LPS (10 ng/mL, Sigma) and IFNγ (10 U/mL, R&Dsystems) for 2 h or 6 h, depending on the experiments. PBMC were exposed to LPS (10 ng/mL) and AHL for 24 h. For TAS2R38 inhibition experiments, cells were exposed to TAS2R38 allosteric inhibitor probenecid (1 mM, Sigma) for one hour before adding AHLs and the inflammatory cocktail, without changing the media.
(§2) RAW264.7 cells were scraped in lysis buffer (20 mM Tris- HCl, pH 7.4, 5 mM EDTA, 0.15 M NaCl, 1% Triton X-100, 0.5% sodium deoxycholate) supplemented with protease inhibitor cocktail (Complete Mini; Roche, Boulogne-Billancourt, France) and phosphatase inhibitor cocktail (PhosSTOP, Sigma-Aldrich). Protein concentrations were determined using the BC Assay (Uptima/Interchim). Wes™ analyses (capillary electrophoresis system; ProteinSimple, San Jose, CA) were performed according to the manufacturer’s recommendations, and adequate protein concentrations and antibody dilutions were determined in preliminary assays to allow optimal quantitative conditions. […] Data were analysed using Compass for SW3.1 software (ProteinSimple).

A further data set has as its system STAT3. The experiment in a line: STAT3 phosphorylation by Wes capillary electrophoresis in activated RAW264.7 macrophages. The data set is classed as cell-based, murine. The settings on record: 50 µM, 2 h, LPS and IFNγ stimulated. Here is the method:
as §1, §2

For a further data set, the system named is RAW264.7 macrophages. The experiment in a line: Cytokine mRNA levels by RT-qPCR in RAW264.7 macrophages stimulated with LPS and IFNγ. It is filed as cell-based, murine. The settings on record: 50 µM, 2 h, vs control. Here is the method: RAW264.7 murine macrophage cells (ATCC, Manassas, Virginia, USA) were cultured between passage 12 and 25 in Dulbecco’s modified Eagle’s medium supplemented with 10% heat-inactivated fetal calf serum and 1% L-glutamine (ThermoFisher Scientific). The macrophages were seeded at 35,000 cells per well in 12-well plates (Falcon) for ELISA experiments or 110,000 cells per well in 6-well plates (Falcon) for cell lysates, upon reaching 80–90% confluence after 3-day culture. Cells were maintained at 37 °C with 5% CO2/air atmosphere and the media were changed every other day.
Cells were exposed to 3-oxo-C12:2-HSL (synthesized as previously described[17]) or DMSO 0.1% as a control for different durations depending on the experiment, in the presence of the lactonase inhibitor 2-hydroxyquinoline (100 µM, Sigma-Aldrich), in order to limit the hydrolysis of the AHL lactone ring, as described previously[17],[18].
as §1
Total RNA was extracted from RAW264.7 cells using TRIzol (Invitrogen) according to the manufacturer's instructions. Reverse Transcription (RT) was performed with 1 μg RNA using LunaScript® RT SuperMix Kit (NewEngland Biolabs). Semi-quantitative real-time PCR was performed with the Mx3000P Stratagene system using SYBR Green (Applied Biosystems) according to the manufacturer's procedures. Cyclophilin was used as the reference gene. After amplification, Ct were determined.
A general note: Real-time PCR tracks product formation cycle by cycle.

3-oxo-C12:2-HSL: the “cytotoxicity, lactate dehydrogenase release compared to the control” value in the data set with RAW264.7 cells and PBMC is recorded as “no significant difference”. Besides, the “phosphorylation level of JAK2 vs activated cells without AHL” value with JAK2 was “not significantly altered”. Besides, the “phosphorylation level of STAT3 vs activated cells without AHL” value in the data set on STAT3 is listed as “not significantly altered”. For the same substance, in the data set on RAW264.7 macrophages, the “IL-10 expression (Il10 mRNA)” value is “strongly increased”, the “Il1b mRNA level” value is “reduced” and the “Tnf mRNA level” value is reported as “reduced”.
